Assay results: US6969702B2, “Compounds and methods for increasing neurogenesis” (priority 2002, dated 2005)
Marks after values point to notes of the source that are not given here. Peptide text beside a SMILES is read from it.

Tested on: mouse adult neural stem cells
Experiment: ATP-assay: proliferation (ATP levels) of neurosphere-derived cells
Settings: for ATP (nM ATP/well) / Fold Induction ATP: Table 4; for Fold Induction ATP: vs vehicle

With `CC(C)C[C@H](NC(=O)[C@H](CCCCN)NC(=O)CNC(=O)[C@H](CC(C)C)NC(=O)[C@@H](N)C(C)C)C(=O)N[C@@H](CO)C(=O)N[C@@H](CCC(N)=O)C(=O)N[C@@H](CCC(=O)O)C(=O)N[C@@H](CC(C)C)C(=O)N[C@@H](Cc1c[nH]cn1)C(=O)N[C@@H](CCCCN)C(=O)N[C@@H](CC(C)C)C(=O)N[C@@H](CCC(N)=O)C(=O)N[C@H](C(=O)N[C@@H](Cc1ccc(O)cc1)C(=O)N1CCC[C@H]1C(=O)N[C@@H](CCCNC(=N)N)C(=O)N[C@H](C(=O)N[C@@H](CC(N)=O)C(=O)N[C@H](C(=O)NCC(=O)N[C@@H](CO)C(=O)NCC(=O)N[C@H](C(=O)N1CCC[C@H]1C(N)=O)[C@@H](C)O)[C@@H](C)O)[C@@H](C)O)[C@@H](C)O` (H-VLGKLSQELHKLQTYPRTNTGSGTP-NH2; N-terminus and C-terminus assumed) the “ATP (nM ATP/well)” value (100 nM) was 15.0 ± 2.2 nM ATP/well.
With `CC[C@H](C)[C@@H]1NC(=O)[C@H](CCCNC(=N)N)NC(=O)[C@H](CC(=O)O)NC(=O)[C@H](CCSC)NC(=O)[C@H](CCCNC(=N)N)NC(=O)CNC(=O)CNC(=O)[C@H](Cc2ccccc2)NC(=O)[C@@H](NC(=O)[C@H](CO)NC(=O)[C@H](CO)NC(=O)[C@H](CCCNC(=N)N)NC(=O)[C@H](CCCNC(=N)N)NC(=O)[C@H](CC(C)C)NC(=O)[C@@H](N)CO)CSSC[C@@H](C(=O)N[C@@H](CC(N)=O)C(=O)N[C@@H](CO)C(=O)N[C@@H](Cc2ccccc2)C(=O)N[C@@H](CCCNC(=N)N)C(=O)N[C@@H](Cc2ccc(O)cc2)C(=O)O)NC(=O)CNC(=O)[C@H](CC(C)C)NC(=O)CNC(=O)[C@H](CO)NC(=O)[C@H](CCC(N)=O)NC(=O)[C@H](C)NC(=O)CNC1=O` [ANP (human)] the “ATP (nM ATP/well)” value (10 nM) was 12.7 ± 1.0 nM ATP/well and the “Fold Induction ATP” value (10 nM) was 1.3* fold.
With `CC[C@H](C)[C@H](NC(=O)[C@H](CC(=O)O)NC(=O)[C@H](CC(C)C)NC(=O)[C@H](Cc1cnc[nH]1)NC(=O)[C@@H]1CSSC[C@H](N)C(=O)N[C@@H](CO)C(=O)N[C@H]2CSSC[C@H](NC(=O)[C@H](CCC(=O)O)NC(=O)[C@H](CCCCN)NC(=O)[C@H](CC(=O)O)NC(=O)[C@H](CCSC)NC(=O)[C@H](CC(C)C)NC(=O)[C@H](CO)NC(=O)[C@H](CO)NC2=O)C(=O)N[C@@H](C(C)C)C(=O)N[C@@H](Cc2ccc(O)cc2)C(=O)N[C@@H](Cc2ccccc2)C(=O)N1)C(=O)N[C@H](C(=O)N[C@@H](Cc1c[nH]c2ccccc12)C(=O)O)[C@@H](C)CC` [Endothelin-1 (human, Bovine, Canine, Mouse, Porcine, Rat)] the “ATP (nM ATP/well)” value (10 nM) was 14.4 ± 2.4 nM ATP/well and the “Fold Induction ATP” value (10 nM, 0.01 µM) was 3.2* fold.
`CC(C)Cn1c(=O)n(C)c(=O)c2[nH]cnc21` [IBMX, 3-Isobutyl-1-Methylxanthine] was tested, and the “proliferation of neural stem cells” value (cAMP activators, GPCR-independent) was “increase”.
